# In patent US8846908B2, “Tricyclic carbamate JAK inhibitors” (Rigel Pharmaceuticals, Inc., priority 2008, dated 2014):
# Biological target: BaF3 V617F cells (Homo sapiens, UniProt O60674, V617F, cells depend on it)
# Assay: Proliferation assay, BaF3 V617F cells (Cell Titer-Glo)
# Format: cell-based, mouse
# Conditions: proliferation for 72 hours at 37° C., stated to show ability to inhibit JAK2 activity, read-out: IC50 (the source's name)
# Experimental: BaF3 V617F cells are maintained and plated in RPMI with 10% FBS. Plating density for these cells is 1×10^5 cells/mL.
# The cells were resuspended in a corresponding medium at a required cell density (see above). 100μ of cell suspension was added to each well of a flat bottom 96 well white plate. The compound was serially diluted in DMSO from 5 mM in 3-fold dilutions, and then diluted 1:250 in the RPMI 1640 medium containing 5% FBS and pen/strep. 100 μL of resulting 2× compound solution was added per well in duplicate and the cells were allowed to proliferate for 72 hours at 37° C.
# Proliferation was measured using Cell Titer-Glo. The substrate was thawed and allowed to come to room temperature. After removal of top 100 μL of medium from each well, 100 μL of the premixed Cell Titer-Glo reagent was added to each well. The plates were mixed on an orbital shaker for three minutes to induce lysis and incubated at ambient temperature for an additional five minutes to allow the signal to equilibrate. The Luminescence was read on the Wallac Plate Reader.
# The results of the ability of the compounds of the invention to inhibit JAK2 activity, when tested in the above assay, are shown in the following Table 2 wherein the level of activity (i.e., the IC50) for each compound is indicated in Table 2. The compound numbers in Table 2 refers to the compounds disclosed herein as being prepared by the methods disclosed herein.
# Sequence of BaF3 V617F cells (O60674 whole entry V617F): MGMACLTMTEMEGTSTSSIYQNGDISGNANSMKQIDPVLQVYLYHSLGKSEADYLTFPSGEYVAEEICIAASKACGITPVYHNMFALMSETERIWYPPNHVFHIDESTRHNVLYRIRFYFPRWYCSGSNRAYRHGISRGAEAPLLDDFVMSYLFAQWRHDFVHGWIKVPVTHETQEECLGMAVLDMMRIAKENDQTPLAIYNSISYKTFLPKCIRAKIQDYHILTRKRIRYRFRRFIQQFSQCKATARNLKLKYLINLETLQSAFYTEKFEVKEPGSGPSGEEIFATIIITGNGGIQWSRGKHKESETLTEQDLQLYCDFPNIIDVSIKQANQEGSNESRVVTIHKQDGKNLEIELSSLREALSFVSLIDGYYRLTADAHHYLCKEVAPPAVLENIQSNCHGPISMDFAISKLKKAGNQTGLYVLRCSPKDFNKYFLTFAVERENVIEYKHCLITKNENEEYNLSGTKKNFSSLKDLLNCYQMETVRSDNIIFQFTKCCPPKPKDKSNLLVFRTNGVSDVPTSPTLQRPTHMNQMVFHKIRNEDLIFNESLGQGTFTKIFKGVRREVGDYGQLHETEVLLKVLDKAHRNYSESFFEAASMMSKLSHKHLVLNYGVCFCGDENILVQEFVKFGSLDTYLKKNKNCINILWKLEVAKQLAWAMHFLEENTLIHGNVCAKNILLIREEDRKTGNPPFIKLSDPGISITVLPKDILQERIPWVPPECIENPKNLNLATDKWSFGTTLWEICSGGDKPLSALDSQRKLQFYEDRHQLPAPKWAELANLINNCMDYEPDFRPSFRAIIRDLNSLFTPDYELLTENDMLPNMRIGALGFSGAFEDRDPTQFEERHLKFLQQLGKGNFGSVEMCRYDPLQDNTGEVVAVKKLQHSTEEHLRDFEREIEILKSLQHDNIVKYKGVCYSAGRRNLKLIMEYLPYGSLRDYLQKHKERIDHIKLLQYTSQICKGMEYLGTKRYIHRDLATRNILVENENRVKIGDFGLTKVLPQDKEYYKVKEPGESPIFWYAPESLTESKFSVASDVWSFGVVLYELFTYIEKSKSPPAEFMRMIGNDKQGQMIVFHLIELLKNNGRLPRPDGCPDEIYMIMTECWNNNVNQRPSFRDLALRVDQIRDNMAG
row,Structure (SMILES),GI50
1,"Cc1cnc(Nc2ccc3c(c2)[C@@H]2NC(=O)O[C@@H]2C3)nc1Nc1ccc2c(c1)NC(=O)C(C)(C)O2 [Compound 13, N4-(2,2-Dimethyl-3-oxo-4H-benz[1,4]oxazin-6-yl)-5-methyl-N2-[(3aS,8aR)-2-oxo-3,3a,8,8a-tetrahydro-2H-indeno[1,2-d]oxazol-5-yl]-2,4-pyrimidinediamine]",1000 to 5000 nM
2,"O=C1N[C@@H]2c3cc(Nc4ncc(Cl)c(Nc5cccc6c5CCC6)n4)ccc3CC2O1 (stereo partly drawn) [Compound 34, 5-Chloro-N4-(indan-4-yl]-5-methyl-N2-[(3aR,8aS)-2-oxo-3,3a,8,8a-tetrahydro-2H-indeno[1,2-d]oxazol-5-yl]-2,4-pyrimidinediamine]",≥ 5000 nM
3,"O=C1N[C@H]2c3cc(Nc4ncc(Cl)c(Nc5cccc6c5OC(F)(F)O6)n4)ccc3C[C@H]2O1 [Compound 25, 5-Chloro-N4-(2,2-difluoro-1,3-benzodioxol-4-yl)-N2-[(3aS,8aR)-2-oxo-3,3a,8,8a-tetrahydro-2H-indeno[1,2-d]oxazol-5-yl]-2,4-pyrimidinediamine]",≥ 5000 nM
4,"Cc1cnc(Nc2ccc3c(c2)[C@@H]2NC(=O)O[C@@H]2C3)nc1Nc1ccc(OCc2cccnc2)cc1 [Compound 32, 5-Methyl-N2-[(3aS,8aR)-2-oxo-3,3a,8,8a-tetrahydro-2H-indeno[1,2-d]oxazol-5-yl]-N4-[4-(pyridin-3-ylmethoxy)phenyl]-2,4-pyrimidinediamine]",250 to 500 nM
5,"Cc1cnc(Nc2ccc3c(c2)[C@H]2NC(=O)CO[C@H]2C3)nc1Nc1ccc(CNS(=O)(=O)C2CC2)cc1 [Compound 39, N4-[4-[[N-(Cyclopropylsulfonyl)amino]methyl]phenyl]-5-methyl-N2-[(4aR,9aS)-3-oxo-2,3,4,4a,9a-hexahydroindeno[2,1-b][1,4]oxazin-6-yl]-2,4-pyrimidinediamine]",250 to 500 nM
6,"Cc1cnc(Nc2ccc3c(c2)[C@H]2NC(=O)OC2C3)nc1Nc1ccc2c(n1)N(C)C(=O)C(C)(C)O2 (stereo partly drawn) [Compound 5, 5-Methyl-N2-[(3aR,8aS)-2-oxo-3,3a,8,8a-tetrahydro-2H-indeno[1,2-d]oxazol-5-yl]-N4-(2,2,4-trimethyl-3-oxo-5-pyrido[1,4]oxazin-6-yl)-2,4-pyrimidinediamine]",< 250 nM
7,"O=C1N[C@@H]2c3cc(Nc4ncc(Cl)c(Nc5cccc6c5CCCC6)n4)ccc3C[C@@H]2O1 [Compound 36, 5-Chloro-N2-[(3aR,8aS)-2-oxo-3,3a,8,8a-tetrahydro-2H-indeno[1,2-d]oxazol-5-yl]-N4-(5,6,7,8-tetrahydronaphthalen-1-yl)2,4-pyrimidinediamine]",250 to 500 nM
8,"Cc1cnc(Nc2ccc3c(c2)[C@@H]2NC(=O)O[C@@H]2C3)nc1Nc1cccc2c1OCCO2 [Compound 24, N4-(1,4-Benzodioxan-5-yl)-5-methyl-N2-[(3aS,8aR)-2-oxo-3,3a,8,8a-tetrahydro-2H-indeno[1,2-d]oxazol-5-yl]-2,4-pyrimidinediamine]",< 250 nM
9,"O=C1N[C@@H]2c3cc(Nc4ncc(Cl)c(Nc5ccc(CCNS(=O)(=O)C6CC6)cc5)n4)ccc3C[C@@H]2O1 [Compound 1, 5-Chloro-N4-[4-[2-[N-(cyclopropylsulfonyl)amino]ethyl]phenyl]-N2-[(3aR,8aS)-2-oxo-3,3a,8,8a-tetrahydro-2H-indeno[1,2-d]oxazol-5-yl]-2,4-pyrimidinediamine]",1000 to 5000 nM
10,"Cc1cnc(Nc2ccc3c(c2)[C@H]2NC(=O)O[C@H]2C3)nc1Nc1ccc2c(c1)N(C)C(=O)C(C)(C)S2 [Compound 7, 5-Methyl-N2-[(3aR,8aS)-2-oxo-3,3a,8,8a-tetrahydro-2H-indeno[1,2-d]oxazol-5-yl]-N4-(2,2,4-trimethyl-3-oxo-benz[1,4]thiazin-6-yl)-2,4-pyrimidinediamine]",< 250 nM
11,"Cc1cnc(Nc2ccc3c(c2)[C@H]2NC(=O)CO[C@H]2C3)nc1Nc1ccc2c(c1)N(C)C(=O)C(C)(C)O2 [Compound 38, 5-Methyl-N2-[(4aR,9aS)-3-oxo-2,3,4,4a,9a-hexahydroindeno[2,1-b][1,4]oxazin-6-yl]-N4-(2,2,4-trimethyl-3-oxo-benz[1,4]oxazin-6-yl)-2,4-pyrimidinediamine]",250 to 500 nM

# Now from value to compound:
row,GI50,Structure (SMILES)
1,500 to 1000 nM,"Cc1cnc(Nc2ccc3c(c2)[C@H]2NC(=O)O[C@H]2C3)nc1Nc1ccc2c(c1)N(C)C(=O)CS2 [Compound 4, 5-Methyl-N4-(4-methyl-3-oxo-2H-benz[1,4]thiazin-6-yl)-N2-[(3aR,8aS)-2-oxo-3,3a,8,8a-tetrahydro-2H-indeno[1,2-d]oxazol-5-yl]-2,4-pyrimidinediamine]"
2,250 to 500 nM,"O=C1N[C@@H]2c3cc(Nc4ncc(F)c(Nc5ccc(CCc6ccncc6)cc5)n4)ccc3C[C@@H]2O1 [Compound 29, 5-Fluoro-N2-[(3aR,8aS)-2-oxo-3,3a,8,8a-tetrahydro-2H-indeno[1,2-d]oxazol-5-yl]-N4-[4-[2-(pyridin-4-yl)ethyl]phenyl]-2,4-pyrimidinediamine]"
3,1000 to 5000 nM,"Cc1cnc(Nc2ccc3c(c2)[C@@H]2NC(=O)O[C@@H]2C3)nc1Nc1ccc(CNS(=O)(=O)C2CC2)cc1 [Compound 15, N4-[4-[[N-(Cyclopropylsulfonyl)amino]methyl]phenyl]-5-methyl-N2-[(3aS,8aR)-2-oxo-3,3a,8,8a-tetrahydro-2H-indeno[1,2-d]oxazol-5-yl]-2,4-pyrimidinediamine]"
4,1000 to 5000 nM,"Cc1cc(CNS(=O)(=O)C2CC2)ccc1Nc1nc(Nc2ccc3c(c2)[C@@H]2NC(=O)O[C@@H]2C3)ncc1Cl [Compound 17, 5-Chloro-N4-[4-[[N-(cyclopropylsulfonyl)amino]methyl]-2-methylphenyl]-N2-[(3aS,8aR)-2-oxo-3,3a,8,8a-tetrahydro-2H-indeno[1,2-d]oxazol-5-yl]-2,4-pyrimidinediamine]"
5,250 to 500 nM,"Cc1cnc(Nc2ccc3c(c2)[C@@H]2NC(=O)O[C@@H]2C3)nc1Nc1ccc(OCc2ccccn2)cc1 [Compound 28, 5-Methyl-N2-[(3aS,8aR)-2-oxo-3,3a,8,8a-tetrahydro-2H-indeno[1,2-d]oxazol-5-yl]-N4-[4-(pyridin-2-ylmethoxy)phenyl]-2,4-pyrimidinediamine]"
6,250 to 500 nM,"Cc1cnc(Nc2ccc3c(c2)[C@@H]2NC(=O)O[C@@H]2C3)nc1Nc1cccc2c1CCCC2 [Compound 22, 5-Methyl-N2-[(3aS,8aR)-2-oxo-3,3a,8,8a-tetrahydro-2H-indeno[1,2-d]oxazol-5-yl]-N4-(5,6,7,8-tetrahydronaphthalen-1-yl)-2,4-pyrimidinediamine]"
7,250 to 500 nM,"Cc1cnc(Nc2ccc3c(c2)[C@@H]2NC(=O)O[C@@H]2C3)nc1Nc1ccc2c(c1)N(C)C(=O)C(C)(C)O2 [Compound 9, 5-Methyl-N2-[(3aS,8aR)-2-oxo-3,3a,8,8a-tetrahydro-2H-indeno[1,2-d]oxazol-5-yl]-N4-(2,2,4-trimethyl-3-oxo-benz[1,4]oxazin-6-yl)-2,4-pyrimidinediamine]"
8,1000 to 5000 nM,"O=C1N[C@H]2c3cc(Nc4ncc(Cl)c(Nc5ccc(CNS(=O)(=O)C6CC6)cc5)n4)ccc3C[C@H]2O1 [Compound 16, 5-Chloro-N4-[4-[[N-(cyclopropylsulfonyl)amino]methyl]phenyl]-N2-[(3aS,8aR)-2-oxo-3,3a,8,8a-tetrahydro-2H-indeno[1,2-d]oxazol-5-yl]-2,4-pyrimidinediamine]"
9,< 250 nM,"O=C1CO[C@H]2Cc3ccc(Nc4ncc(Cl)c(Nc5ccc(CNS(=O)(=O)C6CC6)cc5)n4)cc3[C@H]2N1 [Compound 40, 5-Chloro-N4-[4-[[N-(cyclopropylsulfonyl)amino]methyl]phenyl]-N2-[(4aR,9aS)-3-oxo-2,3,4,4a,9a-hexahydroindeno[2,1-b][1,4]oxazin-6-yl]-2,4-pyrimidinediamine]"
10,1000 to 5000 nM,"O=C1N[C@H]2c3cc(Nc4ncc(F)c(Nc5ccc(OCc6ccccn6)cc5)n4)ccc3C[C@H]2O1 [Compound 30, 5-Fluoro-N2-[(3aS,8aR)-2-oxo-3,3a,8,8a-tetrahydro-2H-indeno[1,2-d]oxazol-5-yl]-N4-[4-(pyridin-2-ylmethoxy)phenyl]-2,4-pyrimidinediamine]"
11,250 to 500 nM,"O=C1N[C@H]2c3cc(Nc4ncc(F)c(Nc5ccc(CCc6ccncc6)cc5)n4)ccc3C[C@H]2O1 [Compound 33, 5-Fluoro-N2-[(3aS,8aR)-2-oxo-3,3a,8,8a-tetrahydro-2H-indeno[1,2-d]oxazol-5-yl]-N4-[4-[2-(pyridin-4-yl)ethyl]phenyl]-2,4-pyrimidinediamine]"
12,250 to 500 nM,"CCCN1C(=O)COc2ccc(Nc3nc(Nc4ccc5c(c4)[C@H]4NC(=O)O[C@H]4C5)ncc3C)cc21 [Compound 6, 5-Methyl-N4-(4-propyl-3-oxo-2H-benz[1,4]oxazin-6-yl)-N2-[(3aR,8aS)-2-oxo-3,3a,8,8a-tetrahydro-2H-indeno[1,2-d]oxazol-5-yl]-2,4-pyrimidinediamine]"
13,250 to 500 nM,"CCN1C(=O)C(C)(C)Oc2ccc(Nc3nc(Nc4ccc5c(c4)[C@@H]4NC(=O)O[C@@H]4C5)ncc3C)cc21 [Compound 11, N4-(2,2-Dimethyl-4-ethyl-3-oxo-benz[1,4]oxazin-6-yl)-5-methyl-N2-[(3aS,8aR)-2-oxo-3,3a,8,8a-tetrahydro-2H-indeno[1,2-d]oxazol-5-yl]-2,4-pyrimidinediamine]"
14,< 250 nM,"O=C1N[C@@H]2c3cc(Nc4ncc(Cl)c(Nc5ccc(CNS(=O)(=O)C6CC6)cc5)n4)ccc3C[C@@H]2O1 [Compound 8, 5-Chloro-N4-[4-[[N-(cyclopropylsulfonyl)amino]methyl]phenyl]-N2-[(3aR,8aS)-2-oxo-3,3a,8,8a-tetrahydro-2H-indeno[1,2-d]oxazol-5-yl]-2,4-pyrimidinediamine]"
